What was measured:
Assay type in all cases: in vivo
[1] = test system: Brachiaria decumbens (BRADE); assay: herbicidal action with/without simulated rainfall after treatment, Brachiaria decumbens; conditions: Example 8, carfentrazone 30 g/ha, glyphosate 1080 g/ha, 0.5% v/v Dash in Carfentrazone and mixture
Experimental: (§1) The enhancement of the rainfastness of glyphosate was determined via the herbicidal activity of the mixture comprising glyphosate and the respective rainfastness enhancing herbicidal component B as well as of the single herbicidal components in relation to simulated rainfall at different time intervals.
(§2) The evaluation of the damage caused by the method and the compositions the according to the present invention and the single herbicidal components was carried out using a scale from 0 to 100%, compared to the untreated control plots. Here, 0 means no damage and 100 means complete destruction of the plants of a respective weed or crop species.
(§3) The application was performed with a fixed spayer system with air pressurization and with a tank spray volume of two liters. The speed of the spray device over the plants was adjusted for a spray volume of 200 I/ha. The spray device was a spray barr with four nozzles from the type Teejet XR 11002VS with a space of 50 cm between each nozzle.
(§4) The application was performed at a weed stage of 6 to 8 leaves. After the application of the formulated herbicides the leaves were washed through rain of 20 mm using a fixed rain simulator system at following time interval: 15 min, 30 min, 1, 2, 3, 4 and 6 hours after treatment.

[2] = test system: Echinochloa colonum (ECHCO); assay: herbicidal action with/without simulated rainfall after treatment, Echinochloa colonum; conditions: Example 7, carfentrazone 30 g/ha, glyphosate 1080 g/ha, 0.5% v/v Dash in Carfentrazone and mixture
Experimental: as §1, §2, §3, §4

Bidens pilosa (BIDPI) = assay: herbicidal action with/without simulated rainfall after treatment, Bidens pilosa; conditions: Example 6, carfentrazone 30 g/ha, glyphosate 1080 g/ha, 0.5% v/v Dash in Carfentrazone and mixture
Experimental: as §1, §2, §3, §4

[3] = simulated rainfall 15 min after treatment, 1 DAA
[4] = simulated rainfall 15 min after treatment, 2 DAA
[5] = simulated rainfall 15 min after treatment, 3 DAA
[6] = simulated rainfall 15 min after treatment, 7 DAA
[7] = simulated rainfall 30 min after treatment, 1 DAA
[8] = simulated rainfall 30 min after treatment, 2 DAA
[9] = simulated rainfall 30 min after treatment, 3 DAA
[10] = simulated rainfall 2 hours after treatment, 1 DAA
[11] = simulated rainfall 2 hours after treatment, 2 DAA
[12] = simulated rainfall 2 hours after treatment, 3 DAA
[13] = simulated rainfall 2 hours after treatment, 7 DAA
[14] = simulated rainfall 6 hours after treatment, 1 DAA
[15] = simulated rainfall 6 hours after treatment, 2 DAA
[16] = simulated rainfall 6 hours after treatment, 3 DAA
[17] = without simulated rainfall, 1 DAA
[18] = without simulated rainfall, 2 DAA
[19] = without simulated rainfall, 3 DAA
[20] = without simulated rainfall, 7 DAA

## Cc1nn(-c2cc(CC(Cl)C(=O)O)c(Cl)cc2F)c(=O)n1C(F)F (centres unmarked) [Carfentrazone, carfentrazone]
[1]; [3]
  herbicidal action against BRADE: 4%
[1]; [4]
  herbicidal action against BRADE: 10.33%
[1]; [5]
  herbicidal action against BRADE: 11.66%
[1]; [6]
  herbicidal action against BRADE: 17.33%
[1]; [7]
  herbicidal action against BRADE: 10.66%
[1]; [8]
  herbicidal action against BRADE: 19.66%
[1]; [9]
  herbicidal action against BRADE: 11.66%
[1]; simulated rainfall 30 min after treatment, 7 DAA
  herbicidal action against BRADE: 18.66%
[1]; [10]
  herbicidal action against BRADE: 15%
[1]; [11]
  herbicidal action against BRADE: 14.33%
[1]; [12]
  herbicidal action against BRADE: 13%
[1]; [13]
  herbicidal action against BRADE: 16.66%
[1]; [14]
  herbicidal action against BRADE: 25%
[1]; [15]
  herbicidal action against BRADE: 29%
[1]; [16]
  herbicidal action against BRADE: 27.66%
[1]; simulated rainfall 6 hours after treatment, 7 DAA
  herbicidal action against BRADE: 26%
[1]; [17]
  herbicidal action against BRADE: 3.66%
[1]; [18]
  herbicidal action against BRADE: 18.33%
[1]; [19]
  herbicidal action against BRADE: 24.33%
[1]; [20]
  herbicidal action against BRADE: 40.33%
[2]; [3]
  herbicidal action against ECHCO: 9%
[2]; [4]
  herbicidal action against ECHCO: 33.33%
[2]; [5]
  herbicidal action against ECHCO: 36%
[2]; [6]
  herbicidal action against ECHCO: 56%
[2]; [10]
  herbicidal action against ECHCO: 14%
[2]; [11]
  herbicidal action against ECHCO: 32.22%
[2]; [12]
  herbicidal action against ECHCO: 37.66%
[2]; [13]
  herbicidal action against ECHCO: 50.33%
[2]; [17]
  herbicidal action against ECHCO: 14.66%
[2]; [18]
  herbicidal action against ECHCO: 54.66%
[2]; [19]
  herbicidal action against ECHCO: 76.66%
[2]; [20]
  herbicidal action against ECHCO: 76%
Bidens pilosa (BIDPI); [3]
  herbicidal action against BIDPI: 51%
Bidens pilosa (BIDPI); [4]
  herbicidal action against BIDPI: 54.66%
Bidens pilosa (BIDPI); [5]
  herbicidal action against BIDPI: 53.33%
Bidens pilosa (BIDPI); [7]
  herbicidal action against BIDPI: 68.66%
Bidens pilosa (BIDPI); [8]
  herbicidal action against BIDPI: 87.66%
Bidens pilosa (BIDPI); [9]
  herbicidal action against BIDPI: 94.66%
Bidens pilosa (BIDPI); [10]
  herbicidal action against BIDPI: 69.33%
Bidens pilosa (BIDPI); [11]
  herbicidal action against BIDPI: 89%
Bidens pilosa (BIDPI); [12]
  herbicidal action against BIDPI: 92.33%
Bidens pilosa (BIDPI); [14]
  herbicidal action against BIDPI: 56%
Bidens pilosa (BIDPI); [15]
  herbicidal action against BIDPI: 86.66%
Bidens pilosa (BIDPI); [16]
  herbicidal action against BIDPI: 92.33%
Bidens pilosa (BIDPI); [17]
  herbicidal action against BIDPI: 69.66%
Bidens pilosa (BIDPI); [18]
  herbicidal action against BIDPI: 94.33%
Bidens pilosa (BIDPI); [19]
  herbicidal action against BIDPI: 99%
